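Assay format: 96-well plates, 48-hour exposure. Here, GI50 denotes the concentration required for 50% inhibition of growth. TGI: total growth inhibition.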
Assays:
Experiment in all cases: growth of human tumour cells (NCI), 48 h
IGROV1 ovarian = system: IGROV1 ovarian
A498 renal = system: A498 renal
LOX IMVI melanoma = system: LOX IMVI melanoma
HCT-15 colon = system: HCT-15 colon
SR leukemia = system: SR leukemia
COLO 205 colon = system: COLO 205 colon
NCI-H23 lung = system: NCI-H23 lung
OVCAR-3 ovarian = system: OVCAR-3 ovarian
SN12C renal = system: SN12C renal
SNB-19 CNS = system: SNB-19 CNS

Row | SMILES | TGI (IGROV1 ovarian) | TGI (A498 renal) | TGI (LOX IMVI melanoma) | TGI (HCT-15 colon) | TGI (SR leukemia) | TGI (COLO 205 colon) | TGI (NCI-H23 lung) | TGI (OVCAR-3 ovarian) | TGI (SN12C renal) | TGI (SNB-19 CNS) | GI50 (A498 renal) | GI50 (HCT-15 colon) | GI50 (SR leukemia) | GI50 (COLO 205 colon) | GI50 (NCI-H23 lung) | GI50 (OVCAR-3 ovarian)
1 | COc1cc2c(cc1OC)C1(COc3cc(O)c(O)c(O)c3C1=O)C2 (stereo not given) | > 50 µM | > 50 µM | > 50 µM | > 50 µM | > 50 µM | > 50 µM | > 50 µM | > 50 µM | > 50 µM | > 50 µM | – | – | – | – | – | –
2 | COc1ccc(OC)c(NS(=O)(=O)c2ccc3nc(C)n(NS(=O)(=O)c4cc(OC)ccc4OC)c(=O)c3c2)c1 | > 100 µM | > 100 µM | > 100 µM | > 100 µM | > 100 µM | > 100 µM | > 100 µM | > 100 µM | > 100 µM | > 100 µM | – | – | – | – | – | –
3 | CC(C)=CCC/C(C)=C/CC/C(C)=C/CC/C(=C/CC/C(C)=C\CC/C(C)=C/CC/C(C)=C/CC/C(C)=C/Cc1cc(O)ccc1O)CO | 10.9 µM | 18.2 µM | > 23.4 µM | 39 µM | > 37.6 µM | 7.87 µM | 4.89 µM | 16.5 µM | > 100 µM | > 100 µM | – | – | – | – | – | –
4 | CN(/N=C/c1ccnc2ccccc12)c1ccc(Cl)cc1[N+](=O)[O-] | > 100 µM | > 100 µM | – | > 100 µM | > 100 µM | > 100 µM | > 100 µM | > 100 µM | > 100 µM | > 100 µM | – | – | – | – | – | –
5 | CCOC(=O)c1sc2[n+](c1C)C(=O)/C(=C/c1ccc([N+](=O)[O-])cc1)S2 | – | > 100 µM | 61.1 µM | – | 57.7 µM | 68.7 µM | 48.4 µM | 24.1 µM | > 100 µM | > 100 µM | – | – | – | – | – | –
6 | CC1=NN(c2nc(N)nc(CC#N)n2)C(C)(C)C1 | > 100 µM | > 100 µM | > 100 µM | > 100 µM | > 100 µM | > 100 µM | > 100 µM | – | – | > 100 µM | – | – | – | – | – | –
7 | O=CC12C3CCC1C2C(=O)C3 (stereo not given) | > 100 µM | – | > 100 µM | > 100 µM | > 100 µM | > 100 µM | > 100 µM | > 100 µM | > 100 µM | > 100 µM | – | – | – | – | – | –
8 | C=C1C(=O)O[C@H]2[C@@H](O)[C@H](C)CCC[C@]3(C)O[C@H]3CC[C@@]3(C)O[C@@H]3C[C@@H]12 | 12.1 µM | 14.4 µM | – | 4.74 µM | 5.99 µM | 10.3 µM | 13 µM | 10.6 µM | 13.2 µM | 27.7 µM | – | – | – | – | – | –
9 | Cc1ccc2nc(-c3ccc(N4C(=O)C(Cl)C4c4ccc(Cl)cc4)cc3)sc2c1 (stereo not given) | – | – | 18.7 µM | 81.5 µM | 57.9 µM | 27.8 µM | 53.7 µM | 40.1 µM | 53.6 µM | > 100 µM | – | – | – | – | – | –
10 | CC(C)C1=CC23CCC4C(C)(C(=O)O)CCCC4(C)C2CC1C1C(=O)N(c2ccccc2)C(=O)C13 (stereo not given) | > 100 µM | – | > 100 µM | > 100 µM | > 100 µM | 52.3 µM | > 100 µM | > 100 µM | > 100 µM | > 100 µM | – | – | – | – | – | –
11 | O=C1c2cc(Cl)ccc2NC(=NCCCl)C2CSCN12 (stereo not given) | > 100 µM | > 100 µM | > 100 µM | > 100 µM | > 100 µM | > 100 µM | – | > 100 µM | > 100 µM | > 100 µM | – | – | – | – | – | –
12 | CC(C)C(N)=O | > 5000 µM | – | > 5000 µM | > 5000 µM | > 5000 µM | > 5000 µM | > 5000 µM | – | > 5000 µM | – | – | – | – | – | – | –
13 | CN(c1ccccc1Cl)S(=O)(=O)c1ccc([N+](=O)[O-])cc1 | > 100 µM | – | > 100 µM | > 100 µM | > 100 µM | > 100 µM | > 100 µM | > 100 µM | > 100 µM | > 100 µM | – | – | – | – | – | –
14 | NNC(=O)c1nnn(CCc2ccccc2)c1C(=O)NN | – | – | > 100 µM | > 100 µM | > 100 µM | > 100 µM | > 100 µM | > 100 µM | > 100 µM | > 100 µM | – | – | – | – | – | –
15 | Cc1ccc(/C=N/Nc2ccc3ccccc3n2)s1 | 53.8 µM | – | 36.5 µM | > 100 µM | > 100 µM | 31.1 µM | > 100 µM | 28.9 µM | 28.4 µM | 59 µM | – | – | – | – | – | –
16 | Nc1ccc(C(=O)c2cn(CCN3CCOCC3)c3ccccc23)c2ccccc12 | 52.3 µM | > 100 µM | 73.1 µM | 43.3 µM | 65.6 µM | 60.6 µM | 68 µM | > 100 µM | – | > 100 µM | – | – | – | – | – | –
17 | c1csc(C[N+]23CN4CN(CN(C4)C2)C3)c1 | 70.2 µM | – | – | 77.2 µM | 35.9 µM | 40.8 µM | > 100 µM | > 100 µM | – | > 100 µM | – | – | – | – | – | –
18 | Cc1ccc(N(CC(=O)Nc2ccc(S(=O)(=O)N3CCC(N4CCCC4)CC3)cc2)S(=O)(=O)c2ccc(Cl)cc2)cc1 | – | 2.84 µM | – | 2.93 µM | 0.856 µM | 3.39 µM | 3.87 µM | 3.49 µM | – | – | 1.44 µM | 1.43 µM | 0.3 µM | 1.75 µM | 1.8 µM | 1.77 µM
19 | CC(=O)NC1=C[C@@H]([C@H]2COC(C)(C)O2)OC1=O | > 100 µM | > 100 µM | > 100 µM | > 100 µM | – | > 100 µM | > 100 µM | > 100 µM | > 100 µM | > 100 µM | – | – | – | – | – | –
20 | Cc1c2c(OCCN3CCCCC3)nn(C)c(=O)c2c(C)n1-c1ccccc1 | > 100 µM | 36.9 µM | 51.1 µM | > 100 µM | – | 35.5 µM | > 100 µM | > 100 µM | > 100 µM | > 100 µM | – | – | – | – | – | –
21 | CC(=O)N=C1N(/C=C2\C(=O)Oc3ccccc3C2=O)C(=O)/C(=C/c2ccc(NC(C)=O)cc2)N1C | > 100 µM | > 100 µM | > 100 µM | > 100 µM | > 100 µM | > 100 µM | > 100 µM | > 100 µM | > 100 µM | – | – | – | – | – | – | –
22 | NC1=CN2c3ccccc3N(CC(=O)O)C2C=C1 (stereo not given) | > 100 µM | > 100 µM | > 100 µM | > 100 µM | > 100 µM | > 100 µM | > 100 µM | > 100 µM | – | > 100 µM | – | – | – | – | – | –
23 | C=C1C(=O)O[C@@H]2C=C(C)C3=CC(=O)[C@](C)(C[C@H](OC(=O)/C(C)=C\C)[C@@H]12)O3 | 3.04 µM | – | 0.979 µM | 2.06 µM | 0.786 µM | 2 µM | 3.43 µM | 1.71 µM | 5.1 µM | 22.4 µM | – | – | – | – | – | –

Source: PubChem BioAssay (NCI)
